We go through five compounds from patent US20050130938A1, “Method for alleviating syndromes and conditions of discomfort of the mammalian intestinal and genito-urinary tracts” (AkPharma Inc., priority 2001, published 2005).

Data set [1] concerns Interstitial Cystitis Symptoms. Conditions: key exacerbant foods and beverages; cited from earlier work.
For data set [2] the following is noted: cited from earlier work.
The next data set deals with astrocytes and neurons. Conditions: culture; cited from earlier work.
The test system of the next data set is Interstitial Cystitis. Conditions: ICSG members; cited from earlier work.
Data set [3] deals with Food-Sensitive Interstitial Cystitis Patients. Conditions: cited from earlier work.
Data set [4] relates to IBS-related symptoms and conditions. The experiment in a line: 'pre-study' IBS survey of patients taking CGP tablets for 28 days. The class given is in vivo, human. From the text: A ‘pre-study’ IBS survey was taken in a large private gastroenterology practice in southern New Jersey. Each of the patients in the survey consumed a series of 2-tablet doses of CGP, in which each tablet contained 0.335 grams CGP so that each dosage was 0.67 gram of CGP. Two tablets were consumed at breakfast, lunch, and dinner, regardless of the acidity of the foods consumed at the meals, and two additional tablets were consumed with any snack eaten during the day, regardless of the acidity of the snack. The total consumption by each patient varied from 8-10 tablets per day up to 20 tablets per day.
The survey included twelve patients, eight of whom completed graphs of their 28-day experience with CGP. The experiences of the four remaining patients were written up by the medical supervisor based on oral reports. […] The patients marked daily, in 10% increments and 10% decrements, whether they felt up to 100% better or down to 100% worse as a result of the treatment.

In the next data set the test system is intestinal musculature. Conditions: some cases; product withdrawn December 2000; cited from earlier work.
The test system of data set [5] is excised animal uterus tissue. Conditions: cited from earlier work; for action on the uterus: in vitro, excised animal uterus tissue.

For `O=P([O-])([O-])OCC(O)CO.[Ca+2]` (stereo not drawn) [CGP, 1,2,3-propanetriol, mono(dihydrogen phosphate) calcium salt (1:1)], in data set [1], the “patients reported a reduction in [urinary] urgency” value was 61.3%; the “patients reported a reduction in pain and discomfort” value is listed as 70.4%. The “dissociation of calcium from the anion” value in data set [2] (regardless of the pH level in the stomach) is on record as “instantly dissociated”. Moreover, in the data set on astrocytes and neurons, the “effect on astrocytes in vitro” value is “enhance the proliferation and differentiation of astrocytes”; the “effect on neurons compared with calcium chloride and non-reagent added media” value is on record as “significant survival effects”. In addition, in the data set with Interstitial Cystitis, the “participants enabled to tolerate a wider variety of foods of an acidic nature” value is recorded as 81% and the “participants found it to be beneficial” value is 69%. The “pain as a result of consuming CGP” value in data set [3] (decreased from 76.7%) is reported as 41%. Besides, the “urinary urgency as a result of consuming CGP” value in data set [3] (decreased from 79.5%) is reported as 51%. The “oral reports to the medical supervisor” value in data set [4] (patients without graphs, one of four discontinued) is “helpful and effective at relieving symptoms and/or pain”. In addition, the “effect on pain and/or symptoms in two of the eight patients who completed graphs (flatliners)” value in data set [4] (self-rated daily graph) is given as “no effect”. Besides, the “results of the remaining six patients who completed graphs” value in data set [4] (self-rated daily graph, some going to 100% improvement and maintaining that level) is recorded as “good to remarkable”. Also, the “drop on the self-rated scale on the day without CGP” value in data set [4] (single patients, one value each) was 10-20% and “50% better” to “50% worse” and “100% better” to “40% worse.”. In addition, in data set [4] (three patients, returned to improved state upon resuming treatment), the “condition on the one day on which CGP was not ingested” value was “marked condition deterioration”. For the same compound, the “patients showed major improvements in IBS-related symptoms and conditions” value in data set [4] (twelve patients, oral 0.67 gram per dose with meals and snacks, 28 days) came to 75%.
With `Cc1[nH]cnc1CN1CCc2c(c3ccccc3n2C)C1=O` [Lotronex], in the data set with intestinal musculature, the “adverse events in use” value is recorded as “intestinal ischemic collapse”.
Regarding `O=C([O-])[O-].[Ca+2]` [calcium carbonate, reference compound], in data set [2] (estimated, only in an acidic milieu), the “time after ingestion until calcium is released” value is 20 to 30 min.
As to `O=P([O-])([O-])OCC(O)CO.[Mg+2]` (stereo not drawn) [magnesium glycerophosphate], in data set [5], the “anti-spasmodic behavior on the intestine” value is “exclude the intestine” and the “action on the uterus” value is listed as “uterine anti-spasmodic agents”.
As to `O=P([O-])([O-])OC(CO)CO.[Na+].[Na+]` [sodium glycerophosphate, Sodium Beta-Glycerophosphate], in data set [5], the “anti-spasmodic behavior on the intestine” value was “exclude the intestine” and the “action on the uterus” value was “uterine anti-spasmodic agents”.
